Our source for the Ka and cytotoxic response values is patent publication US11491227B2, “Cucurbituril-based hydrogels” (CAMBRIDGE ENTERPRISE LIMITED, priority 2012, dated 2022).

For data set [1], the system named is PVA-MV@CB[8]. Description: ITC second guest binding to PVA-MV in the presence of CB[8]. The conditions noted are these: 25° C., 10 mM PBS buffer pH 7.0.
Procedure: ITC titration experiments were carried out on a VP-ITC from Microcal Inc. at 25° C. in 10 mM sodium phosphate buffer (pH=7). In a typical experiment, the host was in the sample cell at a concentration of 0.1 mM, and the guest was in the syringe at a 10 fold higher concentration. In the case of functional polymers, the concentration used is determined from the concentration of functional monomer units in solution and not the concentration of polymer. A titration consisted of 29 consecutive injections of 2-10 mL with at least 300 s intervals between injections. The first data point was removed from the data set prior to curve fitting. Heats of dilution were checked by titration well beyond saturation or by titration of the guest into a buffer solution and subtracted from the normalized enthalpies, but relatively small in all cases. The data were analyzed with Origin 7.0 software, using the one set of sites model.
Isothermal titration calorimetry (ITC) was used for quantitative investigation of the respective binding thermodynamics for the HEC-Np and PVA-MV with CB[8]
The test system of data set [2] is L929 mouse broblast cells. As to conditions: 1 ppm; cited from earlier work.

On to `Oc1ccc2ccccc2c1` [NpOH, 2-naphthol], for which the Ka result in data set [1] is reported as “(1.10 ± 0.03) × 10^5 M^−1”.

In the case of dibutyltin dilaurate [TDL], the cytotoxic response result in data set [2] is listed as “does not elicit a cytotoxic response”.
